Test results from paper PMC11117721, “A Fast-Binding, Functionally Reversible, COX-2 Radiotracer for CNS PET Imaging” (ACS Central Science, 2024).
Converted amounts (≈) assume the structure as drawn. “And” between values parts separate entries of the source, which are not always exact repeats. Equal entries are not always repeated.

Legend:
COX-2 [1] = target: T1, COX-2 (Homo sapiens, UniProt P35354); assay: LCMS-based biochemical COX-2 assay (arachidonic acid to PGE2), short 2 min enzyme-inhibitor incubation; conditions: COX2 IC50 (nM, 2 min), LCMS readout
T1 sequence (P35354 18-604): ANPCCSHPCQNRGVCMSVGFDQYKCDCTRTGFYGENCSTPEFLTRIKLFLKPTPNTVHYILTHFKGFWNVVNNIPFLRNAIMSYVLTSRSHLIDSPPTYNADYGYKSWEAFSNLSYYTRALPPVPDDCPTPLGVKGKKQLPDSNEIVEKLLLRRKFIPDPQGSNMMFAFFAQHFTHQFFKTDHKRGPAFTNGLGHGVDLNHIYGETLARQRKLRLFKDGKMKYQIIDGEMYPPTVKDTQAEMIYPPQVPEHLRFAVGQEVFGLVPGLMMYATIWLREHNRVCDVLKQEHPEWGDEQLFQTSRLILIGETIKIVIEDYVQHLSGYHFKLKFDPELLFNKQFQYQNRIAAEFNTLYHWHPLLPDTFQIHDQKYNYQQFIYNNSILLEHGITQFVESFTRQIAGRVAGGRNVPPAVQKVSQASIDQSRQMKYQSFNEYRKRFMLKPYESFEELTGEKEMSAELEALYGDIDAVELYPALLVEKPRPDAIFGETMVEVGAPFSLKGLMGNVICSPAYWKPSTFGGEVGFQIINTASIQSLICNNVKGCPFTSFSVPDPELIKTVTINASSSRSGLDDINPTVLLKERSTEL
From the text: To anticipate fast washout pharmacokinetics in vivo, we utilized simple plasma and brain protein binding assays to maximize the unbound fraction. […] Previous COX-2 discovery relied on whole blood assays to measure COX-2 inhibition. Focusing on fast-binding inhibitors, we prioritized SAR derived from a rapid inhibition LCMS-based enzymatic assay.

[2] = Plasma protein binding (fraction unbound in plasma, Fup); assay type: in vitro ADME, mouse; conditions: for Fup: as fraction, plasma protein binding; for Fup (mouse, %): mouse plasma
From the text: (§1) To select the best starting point for COX-2 radiotracer development, we extensively profiled a large set of known COX-2 selective inhibitors. Our primary focus was to identify a ligand with high binding affinity, COX-2 selectivity over COX-1, fast on-rate binding kinetics and improved free fraction in plasma to maximize the signal-to-noise ratio in PET imaging experiments. […] To anticipate fast washout pharmacokinetics in vivo, we utilized simple plasma and brain protein binding assays to maximize the unbound fraction.

[3] = Brain protein binding (fraction unbound in brain, Fub); assay type: in vitro ADME
From the text: as §1

Permeability (Papp) = assay type: in vitro ADME; conditions: not told
P-gp = P-gp (Homo sapiens, UniProt P08183); assay: Efflux ratio (ER) / P-gp efflux; assay type: in vitro ADME; conditions: for ER: efflux ratio
COX-2 [4] = target: T1, COX-2; assay: Lipophilic ligand efficiency (LLE)
[5] = Aqueous solubility in PBS; assay type: physicochemical; conditions: aqueous buffer, read-out: Aq. Sol. (PBS)
COX-2 [6] = system: COX-2; set-up: method as in earlier work; conditions: human brain PET; cited from earlier work

Chain of P-gp (P08183 whole entry): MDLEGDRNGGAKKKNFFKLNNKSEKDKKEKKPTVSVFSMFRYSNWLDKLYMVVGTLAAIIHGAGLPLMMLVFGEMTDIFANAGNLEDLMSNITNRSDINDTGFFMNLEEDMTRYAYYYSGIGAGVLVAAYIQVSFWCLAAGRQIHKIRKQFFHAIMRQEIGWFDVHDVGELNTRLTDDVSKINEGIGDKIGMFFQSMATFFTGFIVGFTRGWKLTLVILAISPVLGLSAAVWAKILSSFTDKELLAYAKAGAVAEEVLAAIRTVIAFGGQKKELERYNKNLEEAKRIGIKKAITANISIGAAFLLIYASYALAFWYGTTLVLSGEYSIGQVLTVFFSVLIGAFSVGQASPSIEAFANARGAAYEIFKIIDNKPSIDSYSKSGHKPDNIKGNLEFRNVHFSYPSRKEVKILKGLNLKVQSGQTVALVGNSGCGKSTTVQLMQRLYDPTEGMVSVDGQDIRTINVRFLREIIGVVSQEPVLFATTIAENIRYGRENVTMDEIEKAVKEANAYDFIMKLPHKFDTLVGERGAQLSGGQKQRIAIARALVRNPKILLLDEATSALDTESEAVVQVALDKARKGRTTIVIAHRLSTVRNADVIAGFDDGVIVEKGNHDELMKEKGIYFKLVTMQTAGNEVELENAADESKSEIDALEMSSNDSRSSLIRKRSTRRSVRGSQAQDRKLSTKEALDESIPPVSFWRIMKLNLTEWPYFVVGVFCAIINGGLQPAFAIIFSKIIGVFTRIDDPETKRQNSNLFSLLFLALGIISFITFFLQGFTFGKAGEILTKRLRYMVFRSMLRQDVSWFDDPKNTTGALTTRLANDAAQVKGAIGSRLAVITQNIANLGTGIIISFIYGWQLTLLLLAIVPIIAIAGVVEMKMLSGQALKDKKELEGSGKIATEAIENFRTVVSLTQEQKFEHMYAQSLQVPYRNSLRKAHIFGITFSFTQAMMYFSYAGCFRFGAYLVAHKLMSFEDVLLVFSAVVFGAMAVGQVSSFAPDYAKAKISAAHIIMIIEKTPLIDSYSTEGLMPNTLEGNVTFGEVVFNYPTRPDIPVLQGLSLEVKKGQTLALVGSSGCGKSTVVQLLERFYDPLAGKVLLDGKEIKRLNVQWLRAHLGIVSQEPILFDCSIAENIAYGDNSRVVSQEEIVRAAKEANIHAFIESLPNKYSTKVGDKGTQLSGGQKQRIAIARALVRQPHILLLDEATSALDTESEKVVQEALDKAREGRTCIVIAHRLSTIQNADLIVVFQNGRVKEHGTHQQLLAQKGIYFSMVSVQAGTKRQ

Row | IC50 (COX-2 [1]) | fold improvement in plasma protein binding (PPB) ([2]; BRD1158 compared to MC1) [fold] | Fup [2] | Fup (mouse, %) [2] [%] | Fub (mouse, %) [3] [%] | Papp (Permeability (Papp)) [×10⁻⁶ cm/s] | ER (P-gp) | P-gp efflux (P-gp; result in words) | LLE (COX-2 [4]) | solubility [5] [µM] | Structure (SMILES) | specific binding of the tracer (of the total uptake) (COX-2 [6])
1 | 24.6 nM and 25 nM | 4 | 0.091 | 9.1 | 2.2 | 50.8 | 0.9 | no P-gp efflux | 4.78 |  | CS(=O)(=O)c1ccc(-c2cccc(NCc3ccoc3)n2)cc1 [BRD1158] | 
2 | 3.4 nM and 3 nM |  |  | 0.4 | 0 | 33.7 | 0.9 |  | 4.8 |  | CS(=O)(=O)c1ccc(-c2cccc(OCc3cccs3)n2)cc1 [BRD2369] | 
3 |  |  | 0.024 | 2.4 | 0.75 | 36.5 |  |  |  | 3.4 (≈ 1.28 µg/mL) | COc1cc(NCc2cccs2)nc(-c2ccc(S(C)(=O)=O)cc2)n1 [MC1, reference compound] | 
4 |  |  |  |  |  |  |  |  |  |  | CS(=O)(=O)c1ccc(-c2nc(NCc3cccs3)cc(O[11CH3])n2)cc1 [[^11C]MC1] | 10%–20%
